{"source": "patent US9365522B2", "about": "“Pyrazole amide derivative” (AMGEN INC., priority 2015, dated 2016)"}
{"target": "T1, human RORγ-LBD (Homo sapiens, UniProt P51449)", "T1 construct": "made in house; host or cells: E. coli (BL-21)", "T1 sequence (P51449 262-518)": "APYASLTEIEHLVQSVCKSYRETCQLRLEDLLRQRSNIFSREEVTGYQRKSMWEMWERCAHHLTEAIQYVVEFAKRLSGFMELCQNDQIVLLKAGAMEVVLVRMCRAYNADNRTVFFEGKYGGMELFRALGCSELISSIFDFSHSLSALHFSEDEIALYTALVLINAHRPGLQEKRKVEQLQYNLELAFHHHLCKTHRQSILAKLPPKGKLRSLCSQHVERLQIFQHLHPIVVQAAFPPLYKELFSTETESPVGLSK", "assay": "ROR gamma coactivator peptide recruitment Alphascreen assay (RORγ-LBD binding to GRIP1 coactivator peptide)", "type": "biochemical", "details": "5 nM human RORγ-LBD, 30 nM 7-β-hydroxycholesterol, 50 nM biotinylated GRIP1 coactivator peptide, overnight incubation at room temperature; read-out: result (pIC50, RORγ coactivator peptide recruitment Alphascreen assay) (converted)", "summary_of_the_method": "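Alphascreen proximity read-out after overnight room-temperature incubation, yielding pIC50 from 1-in-2 compound series (2.5% DMSO final). Mixture: 50 nM biotin-GRIP1 peptide, 30 nM 7-β-hydroxycholesterol agonist, 5 nM recombinant 6×His:Flag human RORγ-LBD (aa 262-518), 50 mM HEPES pH 7.4.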", "units": {"IC50": "nM"}}
{"smiles": "CC(C)(C)CN(CC(=O)c1c(Cl)cncc1Cl)C(=O)c1cnn([C@H]2C[C@]3(C[C@H](C(=O)O)C3)C2)c1C(F)(F)F", "note": "(stereo partly drawn) [Example 836, (4R/S)-6-(4-((2-(3,5-dichloro-4-pyridinyl)-2-oxoethyl)(2,2-dimethylpropyl)carbamoyl)-5-(trifluoromethyl)-1H-pyrazol-1-yl)spiro[3.3]heptane-2-carboxylic acid]", "IC50": 30.9}
{"smiles": "CC1(C)CC[C@@H](CN(CC(=O)c2c(Cl)cccc2Cl)C(=O)c2cnn([C@H]3CC[C@](C)(C(=O)O)CC3)c2C(F)(F)F)O1", "note": "[Example 838, trans-4-(4-((2-(2,6-dichlorophenyl)-2-oxoethyl)(((2S)-5,5-dimethyltetrahydro-2-furanyl)methyl)carbamoyl)-5-(trifluoromethyl)-1H-pyrazol-1-yl)-1-methylcyclohexanecarboxylic acid]", "IC50": 13.8}
{"smiles": "CC1(C)CC[C@H](CN(CC(=O)c2c(Cl)cccc2Cl)C(=O)c2cnn([C@H]3CC[C@](C)(C(=O)O)CC3)c2C(F)(F)F)O1", "note": "[Example 839, trans-4-(4-((2-(2,6-dichlorophenyl)-2-oxoethyl)(((2S)-5,5-dimethyltetrahydro-2-furanyl)methyl)carbamoyl)-5-(trifluoromethyl)-1H-pyrazol-1-yl)-1-methylcyclohexanecarboxylic acid]", "IC50": 7.24}
{"smiles": "C[C@]1(C(=O)O)CC[C@H](n2ncc(C(=O)N(C[C@H](O)c3c(Cl)cncc3Cl)CC3(F)CC3)c2C(F)(F)F)CC1", "note": "[Example 840, trans-4-(4-(((2R)-2-(3,5-dichloro-4-pyridinyl)-2-hydroxyethyl)((1-fluorocyclopropyl)methyl)carbamoyl)-5-(trifluoromethyl)-1H-pyrazol-1-yl)-1-methylcyclohexanecarboxylic acid]", "IC50": 240}
{"smiles": "CC(C)(C)CN(CC(=O)c1c(Cl)cncc1Cl)C(=O)c1cnn([C@H]2CC[C@@H](CS(C)(=O)=O)CC2)c1C(F)(F)F", "note": "[Example 841, N-(2-(3,5-dichloro-4-pyridinyl)-2-oxoethyl)-N-(2,2-dimethylpropyl)-1-(cis-4-((methylsulfonyl)methyl)cyclohexyl)-5-(trifluoromethyl)-1H-pyrazole-4-carboxamide]", "IC50": 195}
{"smiles": "COC1(CN(CC(=O)c2c(Cl)cncc2Cl)C(=O)c2cnn([C@H]3CC[C@](C)(C(=O)O)CC3)c2C(F)(F)F)CC1", "note": "[Example 844, trans-4-(4-((2-(3,5-dichloro-4-pyridinyl)-2-oxoethyl)((1-methoxycyclopropyl)methyl)carbamoyl)-5-(trifluoromethyl)-1H-pyrazol-1-yl)-1-methylcyclohexanecarboxylic acid]", "IC50": 30.2}
{"smiles": "C[C@@H]1C[C@@H](n2ncc(C(=O)N(CC(=O)c3c(Cl)ccc(F)c3Cl)[C@H]3C[C@@H]4[C@H](C3)C4(C)C)c2C(F)(F)F)CC[C@@H]1C(=O)O", "note": "[Example 845, (1S,2R,4S)-4-(4-((2-(2,6-dichloro-3-fluorophenyl)-2-oxoethyl)((1R,3r,5S)-6,6-dimethylbicyclo[3.1.0]hexan-3-yl)carbamoyl)-5-(trifluoromethyl)-1H-pyrazol-1-yl)-2-methylcyclohexanecarboxylic acid]", "IC50": 1.45}
{"smiles": "CC1(C)[C@@H]2C[C@H](N(CC(=O)c3c(Cl)cccc3Cl)C(=O)c3cnn([C@H]4C[C@@H](CC(=O)O)C4)c3C(F)(F)F)C[C@@H]21", "note": "[Example 846, (cis-3-(4-((2-(2,6-dichlorophenyl)-2-oxoethyl)((1R,3r,5S)-6,6-dimethylbicyclo[3.1.0]hex-3-yl)carbamoyl)-5-(trifluoromethyl)-1H-pyrazol-1-yl)cyclobutyl)acetic acid]", "IC50": 2.4}
{"smiles": "CC(C)(F)CN(CC(=O)c1c(Cl)cncc1Cl)C(=O)c1cnn([C@H]2C[C@@]3(C[C@H](C(=O)O)C3)C2)c1C(F)(F)F", "note": "(stereo partly drawn) [Example 847, (4s)-6-(4-((2-(3,5-dichloro-4-pyridinyl)-2-oxoethyl)(2-fluoro-2-methylpropyl)carbamoyl)-5-(trifluoromethyl)-1H-pyrazol-1-yl)spiro[3.3]heptane-2-carboxylic acid]", "IC50": 21.9}
{"smiles": "C[C@@H]1C[C@@H](n2ncc(C(=O)N(CC(=O)c3c(Cl)cccc3Cl)[C@H]3CCC34CCC4)c2C(F)(F)F)CC[C@@H]1C(=O)O", "note": "[Example 848, (1S,2R,4S)-4-(4-((2-(2,6-dichlorophenyl)-2-oxoethyl)((1S)-spiro[3.3]hept-1-yl)carbamoyl)-5-(trifluoromethyl)-1H-pyrazol-1-yl)-2-methylcyclohexanecarboxylic acid]", "IC50": 1.32}
{"smiles": "C[C@@H]1C[C@@H](n2ncc(C(=O)N(CC(=O)c3c(Cl)cccc3Cl)[C@@H]3CCC34CCC4)c2C(F)(F)F)CC[C@@H]1C(=O)O", "note": "[Example 849, (1S,2R,4S)-4-(4-((2-(2,6-dichlorophenyl)-2-oxoethyl)((1R)-spiro[3.3]hept-1-yl)carbamoyl)-5-(trifluoromethyl)-1H-pyrazol-1-yl)-2-methylcyclohexanecarboxylic acid]", "IC50": 8.71}
{"smiles": "CCOC(C)(C)CN(CC(=O)c1c(Cl)cncc1Cl)C(=O)c1cnn([C@H]2CC[C@](C)(C(=O)O)CC2)c1C(F)(F)F", "note": "[Example 850, trans-4-(4-((2-(3,5-dichloro-4-pyridinyl)-2-oxoethyl)(2-ethoxy-2-methylpropyl)carbamoyl)-5-(trifluoromethyl)-1H-pyrazol-1-yl)-1-methylcyclohexanecarboxylic acid]", "IC50": 12.9}
{"smiles": "C[C@@H]1C[C@@H](n2ncc(C(=O)N(CC(=O)c3c(Cl)cncc3Cl)CC3CCC4(CC3)CC4)c2C(F)(F)F)CC[C@@H]1C(=O)O", "note": "[Example 852, (1S,2R,4S)-4-(4-((2-(3,5-dichloro-4-pyridinyl)-2-oxoethyl)(spiro[2.5]oct-6-ylmethyl)carbamoyl)-5-(trifluoromethyl)-1H-pyrazol-1-yl)-2-methylcyclohexanecarboxylic acid]", "IC50": 891}
{"smiles": "C[C@]1(C(=O)O)CC[C@H](n2ncc(C(=O)N(CC(=O)c3c(Cl)cncc3Cl)C[C@]34CC[C@H](CC3)O4)c2C(F)(F)F)CC1", "note": "[Example 853, trans-4-(4-((2-(3,5-dichloro-4-pyridinyl)-2-oxoethyl)((1s,4s)-7-oxabicyclo[221]hept-1-ylmethyl)carbamoyl)-5-(trifluoromethyl)-1H-pyrazol-1-yl)-1-methylcyclohex anecarboxylic acid]", "IC50": 17}
{"smiles": "C[C@]1(C(=O)O)CC[C@H](n2ncc(C(=O)N(CC(=O)c3c(Cl)cncc3Cl)CC34CC(C3)C4)c2C(F)(F)F)CC1", "note": "[Example 854, trans-4-(4-((bicyclo[1.1.1]pent-1-ylmethyl)(2-(3,5-dichloro-4-pyridinyl)-2-oxoethyl)carbamoyl)-5-(trifluoromethyl)-1H-pyrazol-1-yl)-1-methylcyclohexanecarboxylic acid]", "IC50": 4.68}
{"smiles": "C[C@H]1C[C@@](C)(C(=O)O)CC[C@H]1n1ncc(C(=O)N(CC(=O)c2c(Cl)cncc2Cl)CC(C)(C)C)c1C(F)(F)F", "note": "[Example 856, (1S,3S,4R)-4-(4-((2-(3,5-dichloro-4-pyridinyl)-2-oxoethyl)(2,2-dimethylpropyl)carbamoyl)-5-(trifluoromethyl)-1H-pyrazol-1-yl)-1,3-dimethylcyclohexanecarboxylic acid]", "IC50": 67.6}
{"smiles": "C[C@@H]1C[C@](C)(C(=O)O)CC[C@@H]1n1ncc(C(=O)N(CC(=O)c2c(Cl)cncc2Cl)CC(C)(C)C)c1C(F)(F)F", "note": "[Example 857, (1R,3R,4S)-4-(4-((2-(3,5-dichloro-4-pyridinyl)-2-oxoethyl)(2,2-dimethylpropyl)carbamoyl)-5-(trifluoromethyl)-1H-pyrazol-1-yl)-1,3-dimethylcyclohexanecarboxylic acid]", "IC50": 33.9}
{"smiles": "CC1(C)[C@@H]2C[C@H](N(CC(=O)c3c(Cl)cccc3Cl)C(=O)c3cnn([C@H]4C[C@@H](CC(=O)O)C4)c3C(F)(F)F)C[C@@H]21", "note": "[Example 859, (cis-3-(4-((2-(2,6-dichlorophenyl)-2-oxoethyl)((1R,3r,5S)-6,6-dimethylbicyclo[3.1.0]hex-3-yl)carbamoyl)-5-(trifluoromethyl)-1H-pyrazol-1-yl)cyclobutyl)acetic acid]", "IC50": 6.03}
{"smiles": "CC(C)(C)CN(CC(=O)c1c(Cl)cncc1Cl)C(=O)c1cnn([C@H]2CC[C@]3(CC2)C[C@@H]3C(=O)O)c1C(F)(F)F", "note": "[Example 860, (1R,3r,6R)-6-(4-((2-(3,5-dichloro-4-pyridinyl)-2-oxoethyl)(2,2-dimethylpropyl)carbamoyl)-5-(trifluoromethyl)-1H-pyrazol-1-yl)spiro[2.5]octane-1-carboxylic acid]", "IC50": 11.5}
{"smiles": "C[C@@H]1C[C@H](n2ncc(C(=O)N(CC(=O)c3c(Cl)cncc3Cl)CC(C)(C)C)c2C(F)(F)F)CC[C@]1(C)C(=O)O", "note": "[Example 862, (1S,3S,4R)-4-(4-((2-(3,5-dichloro-4-pyridinyl)-2-oxoethyl)(2,2-dimethylpropyl)carbamoyl)-5-(trifluoromethyl)-1H-pyrazol-1-yl)-1,2-dimethylcyclohexanecarboxylic acid]", "IC50": 38}
{"smiles": "CC1(CN(CC(=O)c2c(Cl)cncc2Cl)C(=O)c2cnn([C@H]3CC[C@](C)(C(=O)O)CC3)c2C(F)(F)F)CC(F)(F)C1", "note": "[Example 863, trans-4-(4-((2-(3,5-dichloro-4-pyridinyl)-2-oxoethyl)((3,3-difluoro-1-methylcyclobutyl)methyl)carbamoyl)-5-(trifluoromethyl)-1H-pyrazol-1-yl)-1-methylcyclohexanecarboxylic acid]", "IC50": 6.46}
